Experiments:
Gli-Luc/MEF cells (Smo) = test: Gli-Luc/MEF assay (Shh-stimulated luciferase reporter under the Gli response element); format: cell-based, mouse; conditions: Mus musculus, MEF, 48 h
Description: The Gli-Luc/MEF cells obtained from Gli-Luc transgenic mice (Pfizer CoE, Genetically Modified Mice) contain a luciferase reporter gene under the control of the Gli response element. Luciferase activity stimulated with Sonic hedgehog ligand was inhibited by Smo inhibitors, and IC50 was subsequently calculated.
Plates were incubated at 37° C. and 5% CO2 overnight. On day two, cells were dosed with test compounds at a final concentration ranging from […] to 50 μM at a 3-time series dilution. Immediately after dosing cells with compounds, recombinant mouse sonic hedgehog (Shh, R&D Systems 464-SH) was added to a final concentration of 2 μg/mL. The cells were incubated with compounds and Shh for 48 hours at 37° C. and 5% CO2. Luciferase assays were conducted on Day 4 using the Bright-Glo Luciferase assay system (Promega E2620) according to Promega's protocol. Briefly, Bright-Glo luciferase reagent was made up and 25 uL were added to each well of the 384-well plate containing media. Plates were kept at room temperature for 5 minutes, and then read on an Envision Luminescence plate reader (Perkin-Elmer). IC50 of the inhibition was calculated by using GraphPad Prism.

[1] = molecular target: T1, human Smo (amino acids 181-787) (Homo sapiens, UniProt Q99835); test: Smo radioligand competition binding assay (displacement of 3H-PF-03451358 from HEK293 membranes); conditions: for inhibition at 0.05 µM: 0.05 μM test compound, displacement of 3H-PF-03451358, read-out: SMO % inh. @ 0.05 μM; for IC50: radioligand competition binding
T1 construct: expressed in transfected cells; membrane preparation
T1 sequence (Q99835 181-787): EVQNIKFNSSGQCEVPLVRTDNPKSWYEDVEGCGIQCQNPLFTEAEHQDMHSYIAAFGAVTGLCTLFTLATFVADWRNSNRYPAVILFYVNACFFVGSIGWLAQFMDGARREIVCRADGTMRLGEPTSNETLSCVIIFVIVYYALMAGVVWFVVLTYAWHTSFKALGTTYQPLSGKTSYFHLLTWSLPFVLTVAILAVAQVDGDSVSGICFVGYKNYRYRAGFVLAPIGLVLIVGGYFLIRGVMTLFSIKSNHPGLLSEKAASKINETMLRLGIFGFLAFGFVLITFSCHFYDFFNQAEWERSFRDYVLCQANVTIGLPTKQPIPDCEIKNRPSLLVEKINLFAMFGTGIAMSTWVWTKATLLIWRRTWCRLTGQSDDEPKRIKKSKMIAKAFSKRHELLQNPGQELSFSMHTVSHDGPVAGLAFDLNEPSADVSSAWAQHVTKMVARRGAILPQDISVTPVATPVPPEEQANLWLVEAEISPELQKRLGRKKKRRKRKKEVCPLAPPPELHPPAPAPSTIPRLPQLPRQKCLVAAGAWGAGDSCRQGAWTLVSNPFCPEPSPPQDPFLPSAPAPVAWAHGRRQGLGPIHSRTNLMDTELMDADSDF
Description: Membranes were prepared from a stable cell line created in HEK293FlpIn-TetR cells (Invitrogen) using FIp recombinase-mediated insertion of the pSecTag-FRT/V5-His vector containing a cDNA encoding amino acids 181-787 of human Smo fused to the murine lgk leader sequence to produce a cell surface expressed Smo 181-781 protein. Hygromycin-resistant clones were obtained and stained for LacZ expression (no expression indicates a correct knock-in of my fusion cDNA). LacZ-negative cells were analyzed for binding tritiated Smo antagonist PF-03451358. For membrane preparation, the HEK293 cells expressing Smo 181-781 were grown to 90% confluence in nine to fifteen 245 mm×245 mm×22 mm dishes, washed with Dulbecco's PBS (15 ml per dish) and harvested via scraping in 10 ml of DPBS. The cells were collected and centrifuged at 1500 rpm (400×g) for 10 min at 4° C. The cell pellets were re-suspended in 40 ml of cold DPBS and washed by centrifugation at 2300 rpm (950×g max) for 10 minutes at 4° C. The supernatant was aspirated and the cell pellet was snap frozen in a methanol/dry ice bath and stored at −70° C. For membrane preparation, 15 ml of Membrane Preparation Buffer (50 mM Tris-HCl pH 7.5, 250 mM sucrose with Roche complete protease cocktail tablets) is added to the tube containing the cell pellet, then cells are rapidly thawed, and homogenized using an Ultra-Turrax T8 (IKA Labortechnik) set on “6” for 15 seconds for 5-6 times in icy water bath. This homogenate was diluted up to 50 ml using Membrane Preparation Buffer and centrifuged at 35,000 rpm in a Beckman Ti45 rotor (140,000×g) for 35 minutes at 4° C. followed by aspiration of the supernatant and re-suspension of the pellet in 5 ml of Assay Buffer (50 mM Tris-HCl pH 7.5, 100 mM NaCl, 25 mM MgCl2, 1 mM EDTA, and 0.1% protease free bovine serum albumin). The re-suspended pellet is then homogenized in a glass tissue grinder. The re-suspended membranes are aliquoted (0.5 ml aliquots), snap frozen and stored at −70° C. Total protein in the membrane preparation is determined using the Pierce BCA protein assay (Pierce Chemical).
For the binding competition assay, 100 μl of Assay Buffer is added to all the wells of a 96 well GF/B filter plate (Millipore MultiScreen-HTS-FB cat# MSFBN6B50) for 10 minutes to pre-wet the filter prior to evacuation of the buffer (8 inches Hg for 8 seconds). To the pre-wet wells is added: 20 μl of Assay Buffer, 10 μl diluted test agent, 20 μl of ^3H-PF-3451358 (15 nM stock solution), and 50 μl of membrane preparation (40 μg total protein per well). The plates are sealed and mixed at room temperature for 5 min, incubated at room temperature for 2 hours, then washed 5 times with 100 μl/each of wash buffer and vacuum dried for 8 seconds at 8 inch Hg. The plate is then dried for one hour in a 60° C. oven prior to the addition of 45 μl of Microscint 20 (Packard, #6013621) to each well and incubation at RT for 30 minutes to 1 hour. The plate is counted in a TopCount scintillation counter (Perkin Elmer).
Data analysis uses Excel for % Inhibition and Graphpad Prism for IC50 calculation. Total binding (TB, in the absence of inhibitors)=average of ^3H PF-03451358 3 nM+SMO membrane (40 μg/wells (approx 5000-7000 CPM). Non-specific binding (NSB)=average of ^3H PF-03451358 (3 nM)+cold PF-03451358 (30 μM)+SMO membrane (approx 600-1200 CPM). Specific binding (SB)=(total binding−non-specific binding). % Inhibition=[1−(compound Specific binding/control Specific binding)]×100%. IC50 is calculated by fitting the data to the four parameter sigmoidal dose-response curve (variable slope) Y=Bottom+(Top-Bottom)/(1+10̂((LogEC50−X)*HillSlope)). X is the logarithm of the inhibitor concentration. Y is the response; Y starts at Bottom and goes to Top with a sigmoid shape.

| SMILES | IC50 (Gli-Luc/MEF cells (Smo)) | inhibition at 0.05 µM [1] | IC50 [1] |
| --- | --- | --- | --- |
| Cn1c(-c2cc(N3CCN4C[C@H](O)CC4C3)ncc2Cl)nc2ccccc21 (stereo in doubt) [Example A-92, (7R,8aR)-2-[5-chloro-4-(1-methyl-1H-benzimidazol-2-yl)pyridin-2-yl]octahydropyrrolo[1,2-a]pyrazin-7-ol] | 46 nM | 88% | 79 nM |
| Cn1c(-c2cc(N3C[C@@H](CO)C(C)(CO)C3)ncc2Cl)nc2ccccc21 (stereo in doubt) [Example A-95, {(3R,4S)-1-[5-chloro-4-(1-methyl-1H-benzimidazol-2-yl)pyridin-2-yl]-3-methylpyrrolidine-3,4-diyl}dimethanol] | 38 nM | 86% | 70 nM |
| CC(=O)NC1CCN(c2cc(-c3nc4ccccc4n3C)c(Cl)cn2)C1 (stereo in doubt) [Example A-116, N-{(3R)-1-[5-chloro-4-(1-methyl-1H-benzimidazol-2-yl)pyridin-2-yl]pyrrolidin-3-yl}acetamide] | 86 nM | 68% |  |
| CN(C)C(=O)COC1CCN(c2cc(-c3nc4ccccc4n3C)c(Cl)cn2)C1 (stereo in doubt) [Example A-126, 2-({(3R)-1-[5-chloro-4-(1-methyl-1H-benzimidazol-2-yl)pyridin-2-yl]pyrrolidin-3-yl}oxy)-N,N-dimethylacetamide] | 109 nM | 57% |  |
| CC(=O)N1CCN(c2cc(-c3nc4ccccc4n3C)c(Cl)cn2)CC1 [Example A-1, 2-[2-(4-acetylpiperazin-1-yl)-5-chloropyridin-4-yl]-1-methyl-1H-benzimidazole] | 4 nM | 90% | 15.2 nM |
| COC(=O)N1CCN(c2cc(-c3nc4ccccc4n3C)c(Cl)cn2)CC1 [Example A-2, methyl 4-[5-chloro-4-(1-methyl-1H-benzimidazol-2-yl)pyridin-2-yl]piperazine-1-carboxylate] | 3 nM | 87% | 17.2 nM |
| CNC(=O)N1CCN(c2cc(-c3nc4ccccc4n3C)c(Cl)cn2)CC1 [Example A-3, 4-[5-chloro-4-(1-methyl-1H-benzimidazol-2-yl)pyridin-2-yl]-N-methylpiperazine-1-carboxamide] | 9 nM | 93% | 14.1 nM |
| Cn1c(-c2cc(N3CCN(S(C)(=O)=O)CC3)ncc2Cl)nc2ccccc21 [Example A-4, 2-{5-chloro-2-[4-(methylsulfonyl)piperazin-1-yl]pyridin-4-yl}-1-methyl-1H-benzimidazole] | 3 nM | 91% | 29.2 nM |
| Cn1c(-c2cc(N3CCC(NS(C)(=O)=O)CC3)ncc2Cl)nc2ccccc21 [Example A-5, N-{1-[5-chloro-4-(1-methyl-1H-benzimidazol-2-yl)pyridin-2-yl]piperidin-4-yl}methanesulfonamide] | 0.6 nM | 97% | 8 nM |
| CN(C1CCN(c2cc(-c3nc4ccccc4n3C)c(Cl)cn2)CC1)S(C)(=O)=O [Example A-6, N-{1-[5-chloro-4-(1-methyl-1H-benzimidazol-2-yl)pyridin-2-yl]piperidin-4-yl}-N-methylmethanesulfonamide] | 3 nM | 96% |  |
| Cn1c(-c2cc(N3C[C@@H]4[C@H](C3)[C@H]4NS(C)(=O)=O)ncc2Cl)nc2ccccc21 [Example A-8, N-{(1R,5S,6S)-3-[5-chloro-4-(1-methyl-1H-benzimidazol-2-yl)pyridin-2-yl]-3-azabicyclo[3.1.0]hex-6-yl}methanesulfonamide] | 15 nM | 94% | 64 nM |
| CC(=O)N[C@H]1[C@@H]2CN(c3cc(-c4nc5ccccc5n4C)c(Cl)cn3)C[C@@H]21 [Example A-9, N-{(1R,5S,6S)-3-[5-chloro-4-(1-methyl-1H-benzimidazol-2-yl)pyridin-2-yl]-3-azabicyclo[3.1.0]hex-6-yl}acetamide] | 23 nM | 74% | 189 nM |
| Cn1c(-c2ccnc(N3CCC(S(C)(=O)=O)CC3)c2)nc2ccccc21 [Example A-10, 1-methyl-2-{2-[4-(methylsulfonyl)piperidin-1-yl]pyridin-4-yl}-1H-benzimidazole] | 38 nM | 80% | 95 nM |
| Cn1c(-c2ccnc(N3CCS(=O)(=O)CC3)c2)nc2ccccc21 [Example A-11, 2-[2-(1,1-dioxidothiomorpholin-4-yl)pyridin-4-yl]-1-methyl-1H-benzimidazole] | 275 nM | 52% | 486 nM |
| Cn1c(-c2ccnc(N3CCC(CS(C)(=O)=O)CC3)c2)nc2ccccc21 [Example A-12, 1-methyl-2-(2-{4-[(methylsulfonyl)methyl]piperidin-1-yl}pyridin-4-yl)-1H-benzimidazole] | 23 nM | 82% | 48 nM |
| Cn1c(-c2ccnc(N3CCCNCC3)c2)nc2ccccc21 [Example A-13, 2-[2-(1,4-diazepan-1-yl)pyridin-4-yl]-1-methyl-1H-benzimidazole] | 89 nM | 66% | 423 nM |
| Cn1c(-c2ccnc(N3CCCN(S(C)(=O)=O)CC3)c2)nc2ccccc21 [Example A-14, 1-methyl-2-{2-[4-(methylsulfonyl)-1,4-diazepan-1-yl]pyridin-4-yl}-1H-benzimidazole] | 84 nM | 84% | 31 nM |
| Cn1c(-c2ccnc(N3CCC(N4CCOC4=O)CC3)c2)nc2ccccc21 [Example A-15, 3-{1-[4-(1-methyl-1H-benzimidazol-2-yl)pyridin-2-yl]piperidin-4-yl}-1,3-oxazolidin-2-one] | 180 nM | 53% | 404 nM |
| CC(=O)NC1CCN(c2cc(-c3nc4ccccc4n3C)ccn2)CC1 [Example A-16, N-{1-[4-(1-methyl-1H-benzimidazol-2-yl)pyridin-2-yl]piperidin-4-yl}acetamide] | 65 nM | 81% | 102 nM |
| Cn1c(-c2ccnc(N3CCC(NS(C)(=O)=O)CC3)c2)nc2ccccc21 [Example A-17, N-{1-[4-(1-methyl-1H-benzimidazol-2-yl)pyridin-2-yl]piperidin-4-yl}methanesulfonamide] | 6 nM | 99% | 13 nM |

Reference: patent publication US20120157471A1, “BENZIMIDAZOLE DERIVATIVES” (PFIZER INC., priority 2009, published 2012)
